Measurements from US20120321594A1, “METHODS OF CONTROLLING AXON OR DENDRITE DEVELOPMENT OF NEURONAL CELLS” (NEW YORK UNIVERSITY, priority 2011, published 2012).
Where two headings read alike, the source gives them in different places.

Experiments:
[1] = system: MAP2-positive dendrites of Xenopus spinal cord; assay: Whole-mount MAP2 immunohistochemistry of spinal cords (dendrite identity in vivo); parameters: species or system Xenopus laevis; details: for MAP2-IR in the MO-injected side of spinal cords: stage 42, compared to the uninjected side
xCav2.3α1E = assay: Whole-mount immunostaining of xCav2.3α1E expression in spinal cords; type: in vivo, Xenopus laevis
Cav2.3 channels = assay: Whole-cell Ca^2+ currents at growth cones of cultured xSCINs, isolated Cav2.3 (R-type) currents; type: cell-based, Xenopus laevis
Experimental: To test the conversion of the identities of individual neurites and for growth cone electrophysiology, 2,000 U/ml Sema3A (in micropipettes) was applied as a gradient. […] All pharmacological agents were bath-applied 30 min before experiments were performed unless otherwise indicated.

Cav2.3α1E = Cav2.3α1E immunoreactivity in cultured xSCINs; type: cell-based, Xenopus laevis; details: pre-treatment with the agent
Experimental: Sema3A and +CHX, respectively, indicate treatment with Sema3A (2 U·ml−1) for 10 min or with Sema3A (2 U·ml−1) for 10 min after a one-minute pre-administration of cycloheximide (25 μM). FIG. 16B is a graph showing a summary of Cav2.3α1E immunoreactivity (IR, AU) in each experimental condition. […] FIGS. 16D and 16E are immunofluorescence images (FIG. 16D) and summaries (FIG. 16E) of Cav2.3α1E IR in Xenopus spinal cords either without (Control) or with (+CHX) local injection of cycloheximide (2.5 mM). Cav2.3α1E IR was normalized against that of control animals. For uninjected controls, the right sides of spinal cords were normalized against the left sides. Scale bars, 20 μm; data are mean±s.e.m; (n) =number of cultures (150 to 200 neurons, FIG. 16B) spinal cords examined (FIG. 16E). Significant difference from the control is indicated (**p<0.01). […]

cultured xSCINs = assay: Neurite identity (tau-1 / MAP2 immunocytochemistry) of cultured xSCINs; type: cell-based, Xenopus laevis
Experimental: Capped messenger RNAs encoding NP1-0111, hSema3A, mCav2.3α1E, and green fluorescent protein (GFP) were synthesized with mMESSAGE mMACHINE (Ambion Inc.) and purified on NucAway™ Spin Columns (Ambion Inc.) as described by the manufacturer. […] Each blastomere was injected with 4 to 8 nl of 0.5 μg·ul^−1 NPI-0111, 0.5 μg·μl^−1 hSema3A, or 0.5 μg·μl^−mCav2.3α1E mRNA and 0.25 μg·μl^−1 GFP mRNA as an expression indicator. Primary Xenopus spinal neurons derived from developmental stage 26 embryos were cultured at 23° C.-25° C. for 16-20 hours and used for growth cone electrophysiology (FIGS. 2A-2E; FIGS. 3A-3C) and immunocytochemistry (FIGS. 4A and 4B). To examine the neurite identity and expression of functional AMPA receptor channels (FIGS. 5A-5C), cells were plated on cover glasses that had been coated for four to six hours each with poly-L-lysine (100 μg·ml^−1) and laminin (80 μg·ml^−1) and incubated for three to four hours at 23° C.-25° C. prior to use.
Sema3A (2 U·ml^−1) and netrin-1 (5 ng·ml^−1) were prepared as described (Nishiyama et al., “Membrane Potential Shifts Caused by Diffusible Guidance Signals Direct Growth-Cone Turning,” Nat. Neurosci. 11:762-771 (2008); Togashi et al., “Cyclic GMP-Gated CNG Channels Function in Sema3A-Induced Growth Cone Repulsion,” Neuron 58:694-707 (2008); Goshima, “A Novel Action of Collapsin: Collapsin-1 Increases Antero- and Retrograde Axoplasmic Transport Independently of Growth Cone Collapse,” J. Neurobiol. 33:316-328 (1997); Hong et al., “Calcium Signalling in the Guidance of Nerve Growth by Netrin-1,” Nature 403:93-98 (2000); Nishiyama et al., “Cyclic AMP/GMP-Dependent Modulation of Ca^2+ Channels Sets the Polarity of Nerve Growth-Cone Turning,” Nature 423:990-995 (2003); Hong et al., “A Ligand-Gated Association Between Cytoplasmic Domains of UNC5 and DCC Family Receptors Converts Netrin-Induced Growth Cone Attraction to Repulsion,” Cell 97:927-941 (1999), which are hereby incorporated by reference in their entirety). To test the conversion of the identities of individual neurites and for growth cone electrophysiology, 2,000 U/ml Sema3A (in micropipettes) was applied as a gradient. The biological activity of Sema3A (U·ml^−1) was evaluated using a collapse assay of chick DRG neurons (Goshima, “A Novel Action of Collapsin: Collapsin-1 Increases Antero- and Retrograde Axoplasmic Transport Independently of Growth Cone Collapse,” J. Neurobiol. 33:316-328 (1997), which is hereby incorporated by reference in its entirety). All pharmacological agents were bath-applied 30 min before experiments were performed unless otherwise indicated. Agonist and antagonists were purchased from Calbiochem, Peptide Institute, Sigma, and Tocris.

[2] = system: tau-1-positive axons of Xenopus spinal cord; parameters: species or system Xenopus laevis; details: in vivo
[3] = system: MAP2 to tau-1 ratio in Xenopus spinal cords; parameters: species or system Xenopus laevis; details: in vivo
[4] = system: putative CINs of Xenopus spinal cord; assay: Imaging of individual spinal neurons (Texas Red dextran) in MO-injected spinal cords; type: in vivo, Xenopus laevis; details: stage 42 tadpole spinal cords
xSema3A = assay: Whole-mount immunostaining of xSema3A expression in spinal cords; details: stage 30-32 spinal cords
[5] = injected into hindbrain and spinal cord of stage 30-32 tailbuds
[6] = xSema3A-A-MO in one side of spinal cords
[7] = xSCINs cultured on laminin, treated for three hours

`Nc1nc2c(nc(Br)n2[C@@H]2O[C@@H]3COP(=O)(O)O[C@H]3[C@H]2O)c(=O)[nH]1` [8-Br-cGMP] was tested, and the “MAP2-IR / dendrite formation after local administration” value (“MAP2-IR / dendrite formation” for short) [1, 5] was “enhanced”, the “rescue of dendrites in the absence of xCav2.3” value ([1]; local administration, xCav2.3α1E-A-MO (FIG. 15N)) was “failed to rescue dendrites” and the “expression of xCav2.3α1E after local administration” value (xCav2.3α1E; [5]) was “enhanced”. The “expression of xCav2.3α1E after local administration in the absence of Sema3A” value (shortened to “expression of xCav2.3α1E … of Sema3A”) (xCav2.3α1E; [6]) was “induced the expression of xCav2”.

For `O=c1onc2cnc3ccccc3n12` [ODQ, 1H-[1,2,4]oxadiazolo[4,3-a]quinoxalin-1-one], the “MAP2-IR / dendrite formation” value [1, 5] was “abolished”, the “appearance of dendrites in the presence of the xCav2.3” value ([1]; local administration, A-MO in one side of spinal cords (FIGS. 15L, 15M)) was “prevented the appearance of dendrites” and the “expression of xCav2.3α1E after local administration” value (xCav2.3α1E; [5]) was “abolished”. The “expression of xCav2.3α1E … of Sema3A” value (xCav2.3α1E; [6]) was “significant reduction”, the “Rp-8-pCPT-cGMPS-induced Cav2.3 currents in the presence of the agent” value (Cav2.3 channels; agent as pretreatment / in the bath) was “not affected” and the “Sema3A-induced Cav2.3 currents in the presence of the agent” value (from here on “Sema3A-induced Cav2.3 currents”) (Cav2.3 channels; gradient of Sema3A on xSCIN growth cones, agent added) was “prevented”.

In the case of `Nc1nc2c(nc(Sc3ccc(Cl)cc3)n2[C@@H]2O[C@@H]3CO[P@@](=O)(S)O[C@H]3[C@H]2O)c(=O)[nH]1` [Rp-8-pCPT-cGMPS], the “MAP2-IR / dendrite formation” value ([1]; in vivo) is reported as “drastically reduced”, the “appearance of dendrites in the presence of the xCav2.3” value ([1]; in vivo) is reported as “prevented the appearance of dendrites” and the “expression of xCav2.3α1E after local administration” value (xCav2.3α1E; in vivo) is reported as “significant increase”. The “expression of xCav2.3α1E … of Sema3A” value (xCav2.3α1E; in vivo) was “induced the expression of xCav2”, the “Cav2.3 currents induced by a gradient of the agent alone” value (Cav2.3 channels) was “induced Cav2.3 currents” and the “Sema3A-induced Cav2.3 currents” value (Cav2.3 channels) was “pre-empted”.

In the case of `C[C@@H]1C[C@@H]([C@H](O)CC2CC(=O)NC(=O)C2)C(=O)[C@@H](C)C1` [cycloheximide], the “expression of xCav2.3α1E after local administration” value (xCav2.3α1E; in vivo) is reported as “eliminated”, the “Rp-8-pCPT-cGMPS-induced Cav2.3 currents in the presence of the agent” value (Cav2.3 channels) is reported as “eliminated” and the “Sema3A-induced expression of Cav2.3 in vitro after pre-treatment” value (Cav2.3α1E) is reported as “eliminated”.

For `COCCOC(=O)C1=C(C)NC(C)=C(C(=O)OC(C)C)C1c1cccc([N+](=O)[O-])c1` (centres unmarked) [nimodipine], the “MAP2-IR / dendrite formation” value ([1]; in vivo) was “no significant effect”.

With “Netrin-1: another secreted factor that effects axon initiation in C. elegans” the MAP2-IR (cultured xSCINs; [7]) was “no significant effect” and the “tau-1 immunoreactivity (IR)” value (cultured xSCINs; [7]) was “no significant effect”.

For “SNP-1: the soluble Npn-1 ectodomain peptide that sequesters Sema3A”, the “Sema3A-induced conversion of tau-1-positive axons to MAP2-positive dendrites in the presence of the agent” value (“Sema3A-induced conversion” for short) (cultured xSCINs; agent bath-applied with Sema3A) was “prevented”.

“SNX-482 (GVDKAGCRYMFGGCSVNDDCCPRLGCHSLFSYCAWDLTFSD)” was tested, and the “MAP2-positive dendrites after local administration, 45 μM” value ([1]; in vivo) was “eliminated almost all dendrites”, the “MAP2-positive dendrites after local administration, lower doses” value ([1]; in vivo) was “significant reductions” and the “tau-1-IR after local administration into the spinal cord” value [2] was “significant increase”. For the same compound, the “Sema3A-induced Cav2.3 currents” value (Cav2.3 channels) was “abolished”, the “ratio of MAP2 to tau-1 in total protein extracted from spinal cords” value [3] was “significantly lower” and the “Sema3A-induced conversion” value (cultured xSCINs) was “prevented”.

“xCav2.3α1E-A-MO: antisense morpholino oligonucleotide against xCav2.3α1E mRNA (SEQ ID NO: 7) (antisense CTATGTGATATGATTATTTATGACC; all phosphorodiamidate morpholino (PMO))” was tested, and the “MAP2-IR in the MO-injected side of spinal cords” value [1] was “significantly reduced”, the “tau-1-IR in the MO-injected side of the spinal cords” value [2] was “significant increase” and the “neurites of individual putative CINs in the MO-treated side” value [4] was “multiple axon-like neurites”.

“xSema3A-A-MO: antisense morpholino oligonucleotide against xSema3A mRNA (SEQ ID NO: 8) (antisense ATGCAATCCAGGTCAGAGAGCCCAT; all phosphorodiamidate morpholino (PMO))” was tested, and the “MAP2-IR in the MO-injected side of spinal cords” value [1] was “significantly reduced”, the “expression of xCav2.3α1E in the MO-injected side” value (xCav2.3α1E; stage 34) was “reduced markedly” and the “expression of xSema3A in the MO-injected side” value (xSema3A) was “reduced significantly”.

In the case of ω-conotoxin GVIA, the “MAP2-IR / dendrite formation” value ([1]; in vivo) is reported as “no significant effect”, the “tau-1-IR after local administration into the spinal cord” value [2] is reported as “neither nimodipine (FIG. 6F and bottom panel, labeled f; FIG. 6G) nor w-conotoxin GVIA (FIG. 6G) had significant effect” and the “Sema3A-induced conversion” value (cultured xSCINs) is reported as “neither L-types (nimodipine) nor N-types (ω-conotoxin GVIA) prevented the conversion”.
